What was measured:
[1] = tested on: MRSA (ATCC 43300); test: Intrinsic antimicrobial activity (MIC) against MRSA; type: cell-based; conditions: Staphylococcus aureus, MRSA ATCC 43300; mean (n = 2); read-out: MIC MRSA
Summary of the method: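 Bacterial susceptibility was determined following previously reported protocols. The antifungal evaluations were carried out at the Community for Open Antimicrobial Drug Discovery (University of Queensland, Australia) under its standard protocols.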

[2] = tested on: Escherichia coli (ATCC 25922); test: Intrinsic antimicrobial activity (MIC) against E. coli; type: cell-based; conditions: ATCC25922, E. coli ATCC 25922, mean (n = 3), read-out: MIC E. c
Summary of the method: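 Antibacterial MICs by established in-house protocol; yeast MICs run externally at CO-ADD, University of Queensland, per their standard screening protocols.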

[3] = tested on: Acinetobacter baumannii (ATCC 19606); test: Intrinsic antimicrobial activity (MIC) against A. baumannii; type: cell-based; conditions: ATCC19606, A. baumannii ATCC 19606, mean (n = 2), read-out: MIC A. b
Method: (§1) The susceptibility of bacterial strains Staphylococcus aureus (ATCC 25923), Escherichia coli (ATCC 25922) and Pseudomonas aeruginosa (ATCC 27853) to antibiotics and compounds was determined using previously reported protocols. Additional antimicrobial evaluation against MRSA (ATCC 43300), Klebsiella pneumoniae (ATCC 700603), Acinetobacter baumannii (ATCC 19606), Candida albicans (ATCC 90028) and Cryptococcus neoformans (ATCC 208821) was undertaken at the Community for Open Antimicrobial Drug Discovery at The University of Queensland (Australia) according to their standard protocols, as reported previously.

[4] = tested on: Candida albicans (ATCC 90028); test: Intrinsic antifungal activity (MIC) against C. albicans; type: cell-based; conditions: ATCC90028, C. albicans ATCC 90028, mean (n = 2), read-out: MIC C. a
Summary of the method: (§2)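 Fungal strains were tested by CO-ADD at The University of Queensland using that facility's standard protocols, whereas bacterial MICs followed methods published earlier.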

[5] = tested on: E. coli ATCC 25922; test: Enhancement of erythromycin action against E. coli; type: cell-based, Escherichia coli; conditions: erythromycin at 10.9 µM
Method: (§3) Antibiotic enhancer concentrations were determined using previously reported protocols.

[6] = tested on: Pseudomonas aeruginosa (ATCC 27853); test: Intrinsic antimicrobial activity (MIC) against P. aeruginosa; type: cell-based; conditions: ATCC27853, P. aeruginosa ATCC 27853, mean (n = 3), read-out: MIC P. a
Summary of the method: (§4)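 MIC values come from two sources: bacteria tested by previously reported protocols, and Candida and Cryptococcus tested at the Community for Open Antimicrobial Drug Discovery under standard conditions.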

[7] = tested on: P. aeruginosa ATCC 27853; test: Enhancement of doxycycline action against P. aeruginosa; type: cell-based, Pseudomonas aeruginosa; conditions: doxycycline at 4.5 µM
Method: as §3

[8] = tested on: human red blood cells; test: Hemolytic assay; type: cell-based; conditions: mean (n = 2)
Method: Hemolysis assays were conducted using the protocols previously reported.

[9] = tested on: Cryptococcus neoformans (ATCC 208821); test: Intrinsic antifungal activity (MIC) against C. neoformans; type: cell-based; conditions: ATCC208821, C. neoformans ATCC 208821, mean (n = 2), read-out: MIC C. n
Summary of the method: as §2

[10] = tested on: Klebsiella pneumoniae (ATCC 700603); test: Intrinsic antimicrobial activity (MIC) against K. pneumoniae; type: cell-based; conditions: ATCC700603, K. pneumoniae ATCC 700603, mean (n = 2), read-out: MIC K. p
Method: as §1

[11] = Cytotoxicity assay; type: cell-based; conditions: human; HEK293 cells; mean (n = 2); read-out: Cytotoxicity: concentration of compound at 50% cytotoxicity (IC50)
Method: Cytotoxicity assays were conducted using the protocols previously reported.

[12] = tested on: Staphylococcus aureus (ATCC 25923); test: Intrinsic antimicrobial activity (MIC) against S. aureus; type: cell-based; conditions: ATCC25923, S. aureus ATCC 25923, mean (n = 3), read-out: MIC S. a
Summary of the method: as §4

COc1ccc2[nH]cc(CC(=O)NCCCNCCCCCCCCCCNCCCNC(=O)Cc3c[nH]c4ccc(OC)cc34)c2c1.O=C(O)C(F)(F)F.O=C(O)C(F)(F)F [Compound 16e, N^1,N^10-Bis(3-(2-(5-methoxy-1H-indol-3-yl)acetamido)propyl)decane-1,10-diaminium 2,2,2-trifluoroacetate]
MIC [1]: ≤ 0.28 µM
MIC [2]: 14.1 µM
MIC [3]: > 36 µM
MIC [4]: 2.25 µM
Eryth/E. c: concentration required to restore erythromycin activity (combination MIC) [5]: 28.1 µM
MIC [6]: 112 µM
Dox/P. a fold change (ratio between intrinsic MIC of the test compound and combination MIC) [7]: 8 fold
Dox/P. a: concentration required to restore doxycycline activity (combination MIC) [7]: 14.1 µM
Hemolysis: concentration of compound at 10% hemolytic activity (HC10) [8]: >36 µM
MIC [9]: ≤ 0.28 µM
MIC [10]: > 36 µM
IC50 [11]: > 36 µM
MIC [12]: 7.03 µM

COc1ccc2[nH]cc(CC(=O)NCCCNCCCCCCCCCCCCNCCCNC(=O)Cc3c[nH]c4ccc(OC)cc34)c2c1.O=C(O)C(F)(F)F.O=C(O)C(F)(F)F [Compound 16f, N^1,N^12-Bis(3-(2-(5-methoxy-1H-indol-3-yl)acetamido)propyl)dodecane-1,12-diaminium 2,2,2-trifluoroacetate]
MIC [1]: ≤ 0.27 µM
MIC [2]: 13.6 µM
MIC [3]: > 35 µM
MIC [4]: 35 µM
Eryth/E. c: concentration required to restore erythromycin activity (combination MIC) [5]: 27.3 µM
MIC [6]: 109 µM
Dox/P. a fold change (ratio between intrinsic MIC of the test compound and combination MIC) [7]: 8 fold
Dox/P. a: concentration required to restore doxycycline activity (combination MIC) [7]: 13.6 µM
Hemolysis: concentration of compound at 10% hemolytic activity (HC10) [8]: >35 µM
MIC [9]: ≤ 0.27 µM
MIC [10]: > 35 µM
IC50 [11]: > 35 µM
MIC [12]: 6.82 µM

Cc1ccc2[nH]cc(CC(=O)NCCCNCCCCNCCCNC(=O)Cc3c[nH]c4ccc(C)cc34)c2c1.O=C(O)C(F)(F)F.O=C(O)C(F)(F)F [Compound 17a, N^1,N^4-Bis(3-(2-(5-methyl-1H-indol-3-yl)acetamido)propyl)butane-1,4-diaminium 2,2,2-trifluoroacetate]
MIC [1]: ≤ 0.32 µM
MIC [2]: > 259 µM
MIC [3]: > 41 µM
MIC [4]: 20.7 µM
Eryth/E. c: concentration required to restore erythromycin activity (combination MIC) [5]: 64.7 µM
MIC [6]: > 259 µM
Dox/P. a fold change (ratio between intrinsic MIC of the test compound and combination MIC) [7]: > 2 fold
Dox/P. a: concentration required to restore doxycycline activity (combination MIC) [7]: 129 µM
Hemolysis: concentration of compound at 10% hemolytic activity (HC10) [8]: 8.46 µM
MIC [9]: ≤ 0.32 µM
MIC [10]: > 41 µM
IC50 [11]: > 41 µM
MIC [12]: 129 µM

Cc1ccc2[nH]cc(CC(=O)NCCCNCCCCCCNCCCNC(=O)Cc3c[nH]c4ccc(C)cc34)c2c1.O=C(O)C(F)(F)F.O=C(O)C(F)(F)F [Compound 17b, N^1,N^6-Bis(3-(2-(5-methyl-1H-indol-3-yl)acetamido)propyl)hexane-1,6-diaminium 2,2,2-trifluoroacetate]
MIC [1]: ≤ 0.31 µM
MIC [2]: 250 µM
MIC [3]: > 40 µM
MIC [4]: 40 µM
Eryth/E. c: concentration required to restore erythromycin activity (combination MIC) [5]: 31.2 µM
MIC [6]: > 250 µM
Dox/P. a fold change (ratio between intrinsic MIC of the test compound and combination MIC) [7]: > 8 fold
Dox/P. a: concentration required to restore doxycycline activity (combination MIC) [7]: 31.2 µM
Hemolysis: concentration of compound at 10% hemolytic activity (HC10) [8]: 23.1 µM
MIC [9]: ≤ 0.31 µM
MIC [10]: > 40 µM
IC50 [11]: > 40 µM
MIC [12]: 31.2 µM

Cc1ccc2[nH]cc(CC(=O)NCCCNCCCCCCCNCCCNC(=O)Cc3c[nH]c4ccc(C)cc34)c2c1.O=C(O)C(F)(F)F.O=C(O)C(F)(F)F [Compound 17c, N^1,N^7-Bis(3-(2-(5-methyl-1H-indol-3-yl)acetamido)propyl)heptane-1,7-diaminium 2,2,2-trifluoroacetate]
MIC [1]: < 0.2 µM
MIC [2]: 245 µM
MIC [3]: > 39 µM
MIC [4]: 39.3 µM
Eryth/E. c: concentration required to restore erythromycin activity (combination MIC) [5]: 61.4 µM
MIC [6]: > 245 µM
Dox/P. a fold change (ratio between intrinsic MIC of the test compound and combination MIC) [7]: > 2 fold
Dox/P. a: concentration required to restore doxycycline activity (combination MIC) [7]: 123 µM
Hemolysis: concentration of compound at 10% hemolytic activity (HC10) [8]: >39 µM
MIC [9]: < 0.2 µM
MIC [10]: > 39 µM
IC50 [11]: > 39 µM
MIC [12]: 61.4 µM

Cc1ccc2[nH]cc(CC(=O)NCCCNCCCCCCCCCCNCCCNC(=O)Cc3c[nH]c4ccc(C)cc34)c2c1.O=C(O)C(F)(F)F.O=C(O)C(F)(F)F [Compound 17e, N^1,N^10-Bis(3-(2-(5-methyl-1H-indol-3-yl)acetamido)propyl)decane-1,10-diaminium 2,2,2-trifluoroacetate]
MIC [1]: ≤ 0.29 µM
MIC [2]: 58.3 µM
MIC [3]: 37 µM
MIC [4]: ≤ 0.29 µM
Eryth/E. c: concentration required to restore erythromycin activity (combination MIC) [5]: 29.2 µM
MIC [6]: 233 µM
Dox/P. a fold change (ratio between intrinsic MIC of the test compound and combination MIC) [7]: 1 fold
Dox/P. a: concentration required to restore doxycycline activity (combination MIC) [7]: 233 µM
Hemolysis: concentration of compound at 10% hemolytic activity (HC10) [8]: 3.19 µM
MIC [9]: ≤ 0.29 µM
MIC [10]: > 37 µM
IC50 [11]: > 37 µM
MIC [12]: 7.29 µM

Cc1ccc2[nH]cc(CC(=O)NCCCNCCCCCCCCCCCCNCCCNC(=O)Cc3c[nH]c4ccc(C)cc34)c2c1.O=C(O)C(F)(F)F.O=C(O)C(F)(F)F [Compound 17f, N^1,N^12-Bis(3-(2-(5-methyl-1H-indol-3-yl)acetamido)propyl)dodecane-1,12-diaminium 2,2,2-trifluoroacetate]
MIC [1]: ≤ 0.28 µM
MIC [2]: 14.1 µM
MIC [3]: 36 µM
MIC [4]: ≤ 0.28 µM
Eryth/E. c: concentration required to restore erythromycin activity (combination MIC) [5]: 14.1 µM
MIC [6]: 226 µM
Dox/P. a fold change (ratio between intrinsic MIC of the test compound and combination MIC) [7]: 1 fold
Dox/P. a: concentration required to restore doxycycline activity (combination MIC) [7]: 226 µM
Hemolysis: concentration of compound at 10% hemolytic activity (HC10) [8]: ≤0.28 µM
MIC [9]: ≤ 0.28 µM
MIC [10]: > 36 µM
IC50 [11]: > 36 µM
MIC [12]: 7.06 µM

O=C(Cc1c[nH]c2c(F)cccc12)NCCCNCCCCNCCCNC(=O)Cc1c[nH]c2c(F)cccc12.O=C(O)C(F)(F)F.O=C(O)C(F)(F)F [Compound 18a, N^1,N^4-Bis(3-(2-(7-fluoro-1H-indol-3-yl)acetamido)propyl)butane-1,4-diaminium 2,2,2-trifluoroacetate]
MIC [1]: < 0.2 µM
MIC [2]: 256 µM
MIC [3]: > 41 µM
MIC [4]: 5.12 µM
Eryth/E. c: concentration required to restore erythromycin activity (combination MIC) [5]: 64.0 µM
MIC [6]: > 256 µM
Dox/P. a fold change (ratio between intrinsic MIC of the test compound and combination MIC) [7]: 4 fold
Dox/P. a: concentration required to restore doxycycline activity (combination MIC) [7]: 64.0 µM
Hemolysis: concentration of compound at 10% hemolytic activity (HC10) [8]: >41 µM
MIC [9]: < 0.2 µM
MIC [10]: > 41 µM
IC50 [11]: > 41 µM
MIC [12]: 16 µM

O=C(Cc1c[nH]c2c(F)cccc12)NCCCNCCCCCCNCCCNC(=O)Cc1c[nH]c2c(F)cccc12.O=C(O)C(F)(F)F.O=C(O)C(F)(F)F [Compound 18b, N^1,N^6-Bis(3-(2-(7-fluoro-1H-indol-3-yl)acetamido)propyl)hexane-1,6-diaminium 2,2,2-trifluoroacetate]
MIC [1]: < 0.2 µM
MIC [2]: > 247 µM
MIC [3]: > 40 µM
MIC [4]: 39.6 µM
Eryth/E. c: concentration required to restore erythromycin activity (combination MIC) [5]: > 247 µM
MIC [6]: > 247 µM
Dox/P. a fold change (ratio between intrinsic MIC of the test compound and combination MIC) [7]: > 1 fold
Dox/P. a: concentration required to restore doxycycline activity (combination MIC) [7]: 247 µM
Hemolysis: concentration of compound at 10% hemolytic activity (HC10) [8]: >40 µM
MIC [9]: < 0.2 µM
MIC [10]: > 40 µM
IC50 [11]: > 40 µM
MIC [12]: 124 µM
